For the series the following is noted: Liquid; for mass density: 298.15 K, 101.33 kPa.

± gives the expanded uncertainty stated by the source.

In the case of `C1COCCO1` [1,4-dioxane], the mass density was 1027.85 ± 0.23 kg/m3. The “vapor or sublimation pressure” value (375.52 K) worked out at 101.3 ± 4.1 kPa.

Consider `c1ccccc1` [benzene], for which the mass density amounted to 873.55 ± 0.22 kg/m3. Further, the “vapor or sublimation pressure” value (353.2 K) was found to be 101.3 ± 4.1 kPa.

With `C1CCCC1` [cyclopentane], the mass density worked out at 739.74 ± 0.79 kg/m3. Further, under “322.4 K”, the “vapor or sublimation pressure” value turned out to be 101.3 ± 4.1 kPa.

Regarding `C1CCCCC1` [cyclohexane], the mass density worked out at 773.65 ± 0.32 kg/m3. The “vapor or sublimation pressure” value (353.85 K) is recorded as 101.3 ± 4.1 kPa.

The values above are taken from the NIST ThermoML archive (doi:10.1016/j.fluid.2005.09.010).
